{
  "source": "patent US9676820B2",
  "about": "“Method for inhibiting proliferation of high LIX1L-expressing tumor cell, and tumor cell proliferation-inhibiting peptide” (National University Corporation Hamamatsu University School …, priority 2013, dated 2017)",
  "format_in_all_cases": "cell-based",
  "key": {"NUGC-4 strain": {"test_system": "NUGC-4 strain", "test": "MTT assay, NUGC-4 strain", "procedure": "Specifically, first, cells plated in a 96-well microplate such that the density thereof became 5×10^3 cells/well were cultured for one night in a culture solution having the same composition as those in the reference examples. […] After the culturing, an MTT-containing PBS solution was added to the culture solution, and the mixture was incubated for 4 hours. Then, formazan which was generated by putting 100 μL of isopropanol (containing 34 (v/v) % of hydrochloric acid) into each of the wells was dissolved. The absorbance of each of the wells of the microplate at 570 nm was measured using a microplate reader. As controls, culturing was performed in the same manner except that no peptide was added to the strains, an MTT assay was performed thereon, and the absorbance at 570 nm was measured (untreated).\nIn the method for measuring the viable cell counts, cells were cultured for 3 days similarly to Example 1 except that a 25 μM (10 μM for an HL-60 strain, a K562 strain, and a U937 strain) culture solution containing a control peptide or a peptide 1 was used, and the viable cell counts were measured. As a comparison, culturing was performed similarly to the above using a culture solution containing no peptide, and the viable cell counts were measured (untreated).\nIn addition, in the method for performing an MTT assay, cells were cultured for 72 hours similarly to Example 2 except that a peptide to be added to a strain was set to a control peptide or a peptide 1 at 25 μM (10 μM for an HL-60 strain, a K562 strain, and a U937 strain), an MTT assay was performed thereon, and the absorbance at 570 nm was measured. As a comparison, culturing was performed similarly to the above using a culture solution containing no peptide, and the MTT assay was performed thereon (untreated).\nSpecifically, the cells were cultured for 72 hours similarly to Example 2 except that a peptide to be added to a cell was set to a peptide 1, 2, 5, or 6, MTT assays were performed thereon, and the absorbance at 570 nm was measured. As a comparison, culturing was performed similarly to the above using a culture solution containing no peptide, and the MTT assay was performed thereon (untreated).\nSpecifically, the cells were cultured for 72 hours similarly to Example 2 except that peptides to be added to cell strains were set to peptides 7 to 14, MTT assays were performed thereon, and the absorbance at 570 nm was measured. […]\nSpecifically, the cells were cultured for 72 hours similarly to Example 2 except that a peptide to be added to a cell strain was set to a peptide 15 or 16, an MTT assay was performed thereon, and the absorbance at 570 nm was measured. […]"}, "136th tyrosine of LIX1L": {"target": "T1, 136th tyrosine of LIX1L (Homo sapiens, UniProt Q8IVB5)", "T1 construct": "expressed in transfected cells", "T1 sequence (Q8IVB5 with tags, fused parts or gaps)": "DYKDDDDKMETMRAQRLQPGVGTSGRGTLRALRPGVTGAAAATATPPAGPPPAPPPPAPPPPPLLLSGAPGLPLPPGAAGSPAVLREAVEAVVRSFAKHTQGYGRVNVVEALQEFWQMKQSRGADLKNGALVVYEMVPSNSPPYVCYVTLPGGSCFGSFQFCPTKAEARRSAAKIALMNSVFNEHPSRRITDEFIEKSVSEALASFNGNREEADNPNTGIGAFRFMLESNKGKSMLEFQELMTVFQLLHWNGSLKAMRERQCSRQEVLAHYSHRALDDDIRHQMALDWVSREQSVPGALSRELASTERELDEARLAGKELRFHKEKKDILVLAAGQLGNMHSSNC", "test": "Tyrosine phosphorylation of LIX1L by immunoprecipitation and Western blotting in 293 FLG/LIX1L cells", "conditions": "cultured 14 days with peptide", "procedure": "First, a cell strain (293 FLG) in which only FLAG was forcibly expressed, a cell strain (293 FLG/LIX1L) in which a LIX1L protein with a FLAG tag was forcibly expressed, and a cell strain (293 FLG/LIX1L/PY136) in which a LIX1L protein with a FLAG tag for adding a peptide thereto was forcibly expressed were prepared through the same method as Reference Example 5, and were cultured and proliferated.\nNext, the 293 FLG/LIX1L/PY136 cells were cultured for 14 days in a culture solution containing a peptide 1 through the same method as that in Example 3. The 293 FLG cells and the 293 FLG/LIX1L cells were cultured for 14 days in the same manner as above using a culture solution containing no peptide 1.\nNext, the 293 FLG cells, the 293 FLG/LIX1L cells, and the 293 FLG/LIX1L/PY136 cells were respectively cultured in 10% FCS-containing DMEM culture media to which Hygromycin B at […] was added, for 14 days. Then, the cultured cells were separated into nuclear fractions and cytoplasm fractions using Nuclear/Cytosol Fractionation Kit (manufactured by BioVison, Inc.). Immunoprecipitation was performed on both the obtained fractions using an anti-FLAG antibody (manufactured by Sigma-Aldorich Co. LLC.) and an agarose-binding protein A (manufactured by Sigma-Aldorich Co. LLC.), protein separation was performed thereon through 12% SDS-PAGE, and the fractions were transferred to a film. […]"}, "K562 strain": {"test_system": "K562 strain", "test": "Viable cell counts (Trypan blue staining), K562 strain", "conditions": "5 μM peptide, vs untreated", "procedure": "Specifically, cells plated such that the density thereof became 1×10^4 cells/3.5 cm well for one plate (6 wells/plate) for each cell strain were cultured for one night in a culture solution having the same composition as those of the culture solutions described in the reference examples. After culturing of 1 well out of the 6 wells was completed, Trypan blue staining was performed on the 1 well, and viable cell counts were counted. The remaining 5 wells were cultured after exchanging the culture solution with a liquid mixture of a Lipofectamine (registered trademark) reagent (12.5 μL/well) and a culture solution (2 mL/well) of which the shRNA concentration became 2.5 μg/well. Then, Trypan blue staining was performed on 1 well 24 hours after the exchange of a culture medium, 1 well 48 hours after the exchange of a culture medium, and the remaining 1 well 72 hours after the exchange of a culture medium, and the viable cell counts were counted. As a control, the viable cell counts were measured (untreated) by performing the culturing similarly to the above except that a culture medium was exchanged with a culture solution to which no shRNA was added.\nSpecifically, the viable cell counts were measured after culturing the cells similarly to Example 1 except that a 5 μM culture solution containing a control peptide, a peptide 1, or a peptide 2 was used instead of the culture solution (2 mL/well) of which the shRNA concentration was 2.5 μg/well. The viable cell counts were measured (untreated) by performing the culturing similarly to Example 1 using a culture solution containing no peptide 2, as a control."}, "OCUM-1 strain": {"test_system": "OCUM-1 strain", "test": "MTT assay, OCUM-1 strain", "conditions": "MTT assay, 72 hours", "procedure": "Specifically, first, cells plated in a 96-well microplate such that the density thereof became 5×10^3 cells/well were cultured for one night in a culture solution having the same composition as those in the reference examples. Thereafter, the culture solution was exchanged with 100 μL of a culture solution of which the concentration of peptides is 0 μM to 100 μM for culturing for 72 hours. After the culturing, an MTT-containing PBS solution was added to the culture solution, and the mixture was incubated for 4 hours. Then, formazan which was generated by putting 100 μL of isopropanol (containing 34 (v/v) % of hydrochloric acid) into each of the wells was dissolved. The absorbance of each of the wells of the microplate at 570 nm was measured using a microplate reader. As controls, culturing was performed in the same manner except that no peptide was added to the strains, an MTT assay was performed thereon, and the absorbance at 570 nm was measured (untreated)."}},
  "data": [
    {"smiles": "CC(C)[C@H](NC(=O)[C@H](Cc1ccc(O)cc1)NC(=O)[C@H](CS)NC(=O)[C@@H](NC(=O)[C@H](Cc1ccc(O)cc1)NC(=O)[C@@H]1CCCN1C(=O)[C@@H]1CCCN1C(=O)[C@H](CO)NC(=O)[C@H](CC(N)=O)NC(=O)[C@H](CO)NC(=O)[C@@H]1CCCN1C(=O)CCCCCNC(=O)[C@H](CCCNC(=N)N)NC(=O)[C@H](CCCNC(=N)N)NC(=O)[C@H](CCCNC(=N)N)NC(=O)[C@H](CCC(N)=O)NC(=O)[C@H](CCCNC(=N)N)NC(=O)[C@H](CCCNC(=N)N)NC(=O)[C@H](CCCCN)NC(=O)[C@H](CCCCN)NC(=O)[C@H](CCCNC(=N)N)NC(=O)CNC(=O)[C@@H](N)Cc1ccc(O)cc1)C(C)C)C(N)=O", "note": "[peptide 1, YGRKKRRQRRR-X-PSNSPPYVCYV-NH2]", "values": [
      {"measurement": "cell proliferation (MTT assay, absorbance at 570 nm)", "setting": "NUGC-4 strain; 72 hours, peptide concentrations up to 250 μM", "value": "inhibited"},
      {"measurement": "cell proliferation (viable cell counts and MTT assay)", "setting": "NUGC-4 strain; peptide 25 μM, 3 days / 72 hours", "value": "not inhibited"},
      {"measurement": "phosphorylation of the 136th tyrosine of LIX1L", "setting": "136th tyrosine of LIX1L; cytoplasm fraction of 293 FLG/LIX1L/PY136 cell", "value": "significantly inhibited"},
      {"measurement": "phosphorylation of the 136th tyrosine of LIX1L", "setting": "136th tyrosine of LIX1L; nuclear fraction of 293 FLG/LIX1L/PY136 cell", "value": "slightly inhibited"},
      {"measurement": "viable cell counts", "setting": "K562 strain; after 72 hours", "value": "very small"},
      {"measurement": "viable cell counts", "setting": "K562 strain; after culturing for 24 hours", "value": "decreased"},
      {"measurement": "concentration at which a dominant effect of inhibiting the cell proliferation was recognized", "setting": "OCUM-1 strain", "value": "greater than or equal to 6.25 μM"}
    ]}
  ]
}
